Test results taken from patent publication US20110105382A1, “CALMODULIN-BINDING PEPTIDES THAT REDUCE CELL PROLIFERATION IN CANCER AND SMOOTH MUSCLE PROLIFERATION DISEASES” (priority 2007, published 2011).
Entries after “also recorded” stand apart in the source; their conditions may differ. Where no end group is shown, it is not given here.

Legend:
[1] = system: cyclins E1/E2 double knockout MEF; test: Cell cycle analysis, cyclin E1/E2 double knockout MEF; type: cell-based, mouse; conditions: starved cells, serum stimulation 10% FBS, 24 hr (peptide) or 20 hr (CMZ)
Method: (§1) Cell culture conditions The isolation and culture of primary mouse aortic VSMC have was performed according to methods previously described (Afroze T, Yang L L, Wang C, Gros R, Kalair W, Hogue A N, Mungrue I N, Zhu Z, Husain M. Calcineurin-independent regulation of plasma membrane Ca2+ ATPase-4 in the vascular smooth muscle cell cycle. Am J Physiol Cell Physiol. July 2003; 285(1):C88-95). VSMCs were grown in DMEM (GIBCO/BRL, Gaithersburg, Md.) supplemented with 10% FBS (Hyclone, Logan, Utah), 50 ng/mL platelet-derived growth factor (PDGF, Sigma) and 1% penicillin-streptomycin (GIBCO/BRL). For serum starvation, cells were grown to 60% to 70% confluence, washed twice with PBS, and cultured in starvation medium (0.25% FBS-supplemented DMEM) for 72 hours to achieve Go arrest. Progression to G1/S was brought about by stimulation with 10% FBS and 50 ng/mL PDGF for 24 hours. Cells and reagents for primary human aortic VSMC culture were purchased from Cascade Biologics. Human VSMC(C-007-5C) were grown in Medium 231 with Smooth Muscle Growth Supplement (SMGS) S-007-25 and 1% penicillin-streptomycin (GIBCO/BRL). […]
Flow cytometric analysis. […] Cells were counted in a flow cytometer (FACScan, BD Biosciences), and G0/G1, S, and G2/M cell percentages were calculated with Cell Quest software (BD Biosciences).

[2] = system: A549 (human lung cancer cell); test: MTT proliferation assay, A549; type: cell-based; conditions: 100 μM, MTT after 2 days
Method: (§2) Cell culture conditions The isolation and culture of primary mouse aortic VSMC have was performed according to methods previously described (Afroze T, Yang L L, Wang C, Gros R, Kalair W, Hogue A N, Mungrue I N, Zhu Z, Husain M. Calcineurin-independent regulation of plasma membrane Ca2+ ATPase-4 in the vascular smooth muscle cell cycle. Am J Physiol Cell Physiol. July 2003; 285(1):C88-95). VSMCs were grown in DMEM (GIBCO/BRL, Gaithersburg, Md.) supplemented with 10% FBS (Hyclone, Logan, Utah), 50 ng/mL platelet-derived growth factor (PDGF, Sigma) and 1% penicillin-streptomycin (GIBCO/BRL). For serum starvation, cells were grown to 60% to 70% confluence, washed twice with PBS, and cultured in starvation medium (0.25% FBS-supplemented DMEM) for 72 hours to achieve Go arrest. Progression to G1/S was brought about by stimulation with 10% FBS and 50 ng/mL PDGF for 24 hours. Cells and reagents for primary human aortic VSMC culture were purchased from Cascade Biologics. Human VSMC(C-007-5C) were grown in Medium 231 with Smooth Muscle Growth Supplement (SMGS) S-007-25 and 1% penicillin-streptomycin (GIBCO/BRL). Cyclin E1/E2 double knockout mouse embryonic fibroblasts (MEF) were kindly provided by Dr. P. Sicinski (Harvard Medical School), and maintained in DMEM with 10% FBS (Hyclone) and 1% penicillin-streptomycin (GIBCO/BRL). Go arrest of MEF was achieved by starvation for 48 h in medium lacking FBS. Mouse embryonic fibroblasts (MEF) were maintained for normal culture in 10% FBS-supplemented DMEM. For the starvation of MEF, cells were cultured in starvation medium without FBS for 48 hours to achieve Go arrest. HeLa (human cervical cancer cell), Saos-2 (human osteosarcoma cell) and A549 (human lung cancer cell) were cultured in 10% FBS-supplemented DMEM.
(§3) MTT colorimetric survival assay. Active mitochondria of living cells can cleave MTT to produce formazan, the amount of which is directly proportional to the number of living cells. Cell survival was assessed (Denizot, 1986). Cells in 96-well plate were washed two times with PBS followed by 4 hr of incubation at 37° C. with 1 mg/ml of MTT (in phenol red free DMEM supplemented with 2 mM of L-glutamine & 1 mM of sodium pyruvate) in a reaction volume of 100 μl. After removing MTT solution, DMSO was added to dissolve formazan crystals. Plate was shaken for 5 min at 55° C. for complete dissolve. Dye absorbance in viable cells was measured at 570 nm with 630 nm as a reference wavelength. All experiments were repeated at least 3 times, and each experimental condition was repeated in at least quadruplicate wells in each experiment.

Cyclin E1/E2 KO MEF = test: 3H-thymidine incorporation assay, Cyclin E1/E2 KO MEF; type: cell-based, mouse; conditions: 10 and 100 μM for 1.0 h, 48 h after treatment; listed as TAT-CBS
Method: as §1, with “Biologics.” for “Biologics. Human VSMC(C-007-5C) were grown in Medium 231 with Smooth Muscle Growth Supplement (SMGS) S-007-25 and 1% penicillin-streptomycin (GIBCO/BRL).”
(§4) ^3H-thymidine incorporation proliferation assay. […] Cells were grown at 37° C. and analyzed at 24, 48 and 72 h after ^3H-thymidine exposure. […] Solubilized contents of wells were removed and added to 2.5 ml of scintillation fluid (ReadySafe™ Cocktail, Beckman Coulter, Product No. 141349). Radioactivity was measured in a scintillation counter (Beckman Coulter, LS 6500).

[3] = system: HeLa (human cervical cancer cell); test: MTT proliferation assay, HeLa; type: cell-based; conditions: 100 μM, MTT after 2 days
Method: as §2, §3

MEF = test: 3H-thymidine incorporation assay, MEF; type: cell-based, mouse; conditions: 10 and 100 μM for 1.0 h, 48 h after treatment; listed as TAT-CBS
Method: as §1, with “Biologics.” for “Biologics. Human VSMC(C-007-5C) were grown in Medium 231 with Smooth Muscle Growth Supplement (SMGS) S-007-25 and 1% penicillin-streptomycin (GIBCO/BRL).”
as §4

[4] = system: primary human aortic VSMC; test: 3H-thymidine incorporation assay, human aortic VSMC; type: cell-based; conditions: 10 and 100 μM for 1.0 h, 72 h after treatment; listed as TAT-CBS
Method: as §1, with “Biologics.” for “Biologics. Human VSMC(C-007-5C) were grown in Medium 231 with Smooth Muscle Growth Supplement (SMGS) S-007-25 and 1% penicillin-streptomycin (GIBCO/BRL).”
as §4

[5] = system: Saos-2 (human osteosarcoma); test: MTT proliferation assay, Saos-2; type: cell-based; conditions: 100 μM, MTT after 2 days
Method: as §2, §3

primary mouse aortic SMC = type: cell-based
Method: as §2, §3
Nucleofection. For peptides delivery via Nucleofector technology, 1×10^6 cells were harvested, resuspended in 100 μl of Nucleofector solution (for VSMC: Cat. No. VPI-1004; for MEF: Cat. No.: VPD-1005, both provided by Amaxa GmBH, Köln, Germany) and mixed with 100 nmole (in 10 μl) of each peptide. The cell solution was transferred into a kit-provided cuvette and positioned into a Nucleofector device. Subsequently, the transfection was performed with a single pulse using the preprogrammed nucleofection program (A-33 for VSMC; T-20 for MEF) according to the manufacturer's recommendation. Following nucleofection, the cells were transferred into 96-well plate (2K or 5K cells per well for MTT assay) or T25 culture flasks (for FACS analysis) containing pre-warmed stem cell medium using kit-provided plastic pipettes to prevent cell damage and the cells were cultured at 37° C. in 5% CO2.

| Molecule | cell cycle progression into S phase, cyclins E1/E2 double knockout MEF [1] | proliferation of A549 cells (MTT) [2] | 3H-thymidine incorporation (S-phase entry), Cyclin E1/E2 KO MEF (Cyclin E1/E2 KO MEF) | proliferation of HeLa cells (MTT) [3] | 3H-thymidine incorporation (S-phase entry), MEF (MEF) | 3H-thymidine incorporation (S-phase entry), human aortic VSMC [4] | proliferation of Saos-2 cells (MTT) [5] | IC50 (primary mouse aortic SMC) [µM] | maximum level of inhibition of VSMC proliferation (primary mouse aortic SMC) [%] |
| --- | --- | --- | --- | --- | --- | --- | --- | --- | --- |
| Clc1ccc(C(c2ccc(Cl)cc2)n2cc[n+](CC(OCc3ccc(Cl)cc3Cl)c3ccc(Cl)cc3Cl)c2)cc1 (stereo not drawn) [calmidazolium] | did inhibit |  |  |  |  |  |  |  |  |
| RRRQRRKKRGGGAEFSARSRKRKANVTVFLQD [TAT-SEQ ID NO:2] |  | inhibited | not and not able to produce an anti-proliferative effect | inhibited | observed; also recorded: dose-dependent, anti-proliferative effect | dose-dependent inhibitory effect; also recorded: inhibited; also recorded: dose-dependent, anti-proliferative effect | inhibited | 8.89 ± 1.24 | 70 |
